19 compounds from PubChem BioAssay (NCI) can be followed below.

What all share (assay): NCI-60 cell line screen, 48 h
Assay [1] deals with 786-0 renal.
The test system of assay [2] is CAKI-1 renal.
The test system of assay [3] is HCT-116 colon.
In assay [4] the test system is HL-60(TB) leukemia.
Assay [5] deals with MALME-3M melanoma.
In assay [6] the test system is MCF7 breast.
The subject of assay [7] is NCI/ADR-RES ovarian.
In assay [8] the test system is OVCAR-4 ovarian.
The test system of assay [9] is RXF 393 renal.
Assay [10] has as its system SN12C renal.

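Method: 48-hour compound exposure of cells in 96-well plates, five concentrations, linear interpolation of endpoints. GI50 marks 50% less growth. Definition used: TGI = concentration required for complete inhibition of growth.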

Consider `CNC(=O)OCc1nc(SC)n(C)c1COC(=O)NC`, for which the TGI in assay [1] was 413 µM; in assay [2], 497 µM; in assay [3], 372 µM; in assay [4] it was 262 µM; in assay [5] it was 253 µM; in assay [6], 622 µM. Moreover, the TGI turned out to be 535 µM in assay [7], 281 µM in assay [8], 169 µM in [9] and 309 µM in assay [10].
In the case of `CSC1=Nc2c(c(C)c(-c3ccccc3)n2COC(CO)CO)C2=NC(=O)CC(C)N12` (stereo not given), the GI50 in assay [1], in assay [2], in [3], in assay [5], in assay [6] and in assay [7] was > 100 µM each time. Besides, the GI50 in assay [8], in assay [9] and in [10] was > 100 µM each time. The TGI in [1], in [2], in assay [3], in assay [5], in assay [6] and in assay [7] was > 100 µM in each case. The TGI in [8], in [9] and in assay [10] was > 100 µM each time.
On to `CC(=O)Oc1cc2cnc3c4cc(OC(C)=O)c(OC(C)=O)cc4ccc3c2cc1OC(C)=O`, for which the GI50 was 2.99 µM in assay [1]; 0.611 µM in assay [2]; 0.471 µM in assay [3]; 3.26 µM in assay [4]; 1.55 µM in assay [5]; 0.638 µM in assay [6]. In addition, the GI50 was 1.88 µM in assay [7], 1.35 µM in assay [8], 1.79 µM in [9] and 2.18 µM in assay [10]. Further, the TGI in assay [1] was 16.3 µM; in assay [2] it was > 100 µM; in assay [3], 3.86 µM; in assay [4], 19.8 µM; in assay [5] it was 9.33 µM; in assay [6], > 100 µM. Besides, the TGI was > 100 µM in assay [7], > 100 µM in assay [8], 8.88 µM in assay [9] and > 100 µM in assay [10].
Consider `O=c1[nH]cnc2n[nH]nc12`, for which the TGI was > 100 µM in [1]; > 100 µM in assay [2]; 28.3 µM in assay [3]; > 56.4 µM in [4]; 46.4 µM in assay [5]; > 100 µM in [6]. The TGI in assay [7] was > 100 µM; in assay [8] it was > 84.8 µM; in assay [9] it was 14.4 µM; in [10], > 100 µM. For the same compound, the values for the GI50 in assay [6] and in assay [7] were 24 µM and 0.472 µM, respectively.
As to `CCc1ccc2c(c1)N(CCO)C1=C(C(=O)OC1)C2c1cc(OC)c(OC)c(OC)c1` (stereo not given), the GI50 in assay [1] was 0.245 µM; in [2], 0.599 µM; in assay [3], 0.188 µM; in assay [4] it was 0.142 µM; in assay [5] it was 0.218 µM; in [6], 0.209 µM. In addition, the values for the GI50 in [7], in assay [8] and in [10] were 0.974 µM, 0.362 µM and 0.345 µM, respectively. Further, the TGI in assay [1] was > 14.5 µM; in assay [2] it was > 50 µM; in assay [3], 1.77 µM; in assay [4], 0.48 µM; in assay [5], > 50 µM; in [6] it was > 50 µM. Moreover, the TGI is 6.65 µM in [7], > 50 µM in assay [8] and > 50 µM in assay [10].
On to `C=C1CC[C@H]2C(C)=CC[C@H]3C(=C)C(=O)O[C@@H]3[C@@H]12`, for which the TGI in [1], in assay [2], in assay [3], in assay [4], in [5] and in assay [6] was > 100 µM each time. The TGI in assay [7], in [8] and in assay [10] was > 100 µM each time.
With `COc1ccc(-c2cc(/C=C/C(=O)c3ccc(N)cc3)[nH]n2)cc1`, the GI50 in assay [1] is 2.12 µM; in assay [2] it was 1.32 µM; in assay [4], 1.43 µM; in assay [5], 2.18 µM; in assay [6] it was 0.708 µM; in assay [7] it was 2.86 µM. Moreover, the GI50 in assay [8] was 1.08 µM; in assay [9] it was 1.67 µM; in assay [10], 1.89 µM. The TGI came out at 5.69 µM in assay [1]; 11.1 µM in assay [2]; 7.71 µM in assay [4]; 6.22 µM in assay [5]; 3.84 µM in assay [6]; 15.5 µM in [7]. Moreover, the TGI in assay [8] worked out at 8.01 µM; in assay [9], 4.19 µM; in assay [10], 6.63 µM.
For `O=NNc1ccc(S(=O)(=O)c2ccc3ccccc3c2)cn1`, the TGI in assay [1], in [2], in assay [3], in assay [4], in assay [5] and in assay [6] was > 100 µM in each case. Also, the TGI in assay [7], in assay [8] and in [10] was > 100 µM throughout.
In the case of `COc1cc(-c2nn(-c3cccc(NC(=O)CCNc4ccc(N5CCOCC5)cc4)c3)cc2-c2ccncc2)ccc1Cl`, the GI50 in [1] was 2.87 µM; in assay [3], 2.31 µM; in assay [4], 3.71 µM; in assay [5] it was 2.31 µM; in assay [6], 2.47 µM; in assay [7], 4.09 µM. In addition, the GI50 is 2.6 µM in assay [8], 2.05 µM in assay [9] and 3.19 µM in [10]. Besides, the TGI was 34.7 µM in [1]; > 100 µM in [3]; > 100 µM in assay [4]; 6.93 µM in assay [5]; 11.5 µM in [6]; > 100 µM in assay [7]. The figures for the TGI in assay [8], in assay [9] and in assay [10] were 16.6 µM, 8.08 µM and > 100 µM, respectively.
In the case of `COc1cc(/C=C2\SC(N3CCCCC3)=NC2=O)ccc1OCCCCCCOc1ccc(/C=C2\SC(N3CCCCC3)=NC2=O)cc1OC`, the GI50 in [1] is 7.71 µM; in [2] it was 22.7 µM; in assay [3], 12.6 µM; in assay [4], 14.6 µM; in [5], 3.87 µM; in assay [6], 15.1 µM. Besides, the GI50 in [7] is 9.11 µM; in assay [9] it was 4.94 µM; in assay [10], 19 µM. Moreover, the TGI in assay [1] worked out at 27.8 µM; in [2] it was 84.7 µM; in assay [3], 31.2 µM; in assay [4], 84.4 µM; in assay [5], 30 µM; in [6], 44.9 µM. In addition, the TGI in assay [7] is 28.2 µM; in assay [9], 16.9 µM; in [10], > 100 µM.
With `Cc1cc(S(N)(=O)=O)c(S/C(=N\NS(=O)(=O)c2ccccc2)c2ccc(Cl)cc2)cc1Cl`, the GI50 in assay [1] is > 100 µM; in assay [2], > 100 µM; in [3], 77 µM; in [4], 50.6 µM; in assay [5] it was 65.4 µM; in assay [6], 75.3 µM. Moreover, the figures for the GI50 in assay [7], in assay [8] and in assay [10] were > 100 µM, > 100 µM and 46.5 µM, respectively. Besides, the TGI in assay [1], in assay [2], in assay [3], in assay [4], in assay [5] and in [6] was > 100 µM each time. Moreover, the TGI in assay [7], in [8] and in assay [10] was > 100 µM each time.
For `COc1cc(-c2nn(-c3cccc(NC(=O)CCN4CCN(c5ccccc5)CC4)c3)cc2-c2ccncc2)ccc1Cl`, the GI50 in assay [1] was 1.83 µM; in [3], 2.85 µM; in assay [4] it was 3.63 µM; in [5] it was 2.73 µM; in assay [6], 2.55 µM; in assay [7], 3.18 µM. Moreover, the GI50 in assay [8] is 3.03 µM; in assay [9], 1.91 µM; in [10], 3.72 µM. Further, the TGI in assay [1] was 4.23 µM; in [3], > 100 µM; in assay [4], > 100 µM; in assay [5], 14.3 µM; in assay [6] it was > 100 µM; in assay [7], > 100 µM. Further, the results for the TGI in assay [8], in assay [9] and in [10] were > 100 µM, 5.18 µM and > 100 µM, respectively.
In the case of `COc1ccc(C2NC(=S)NC3=C2CCOc2c3ccc3ccccc23)cc1` (stereo not given), the GI50 was > 100 µM in assay [1]; > 100 µM in [2]; 23.4 µM in assay [4]; 49.8 µM in assay [5]; 5.32 µM in assay [6]; 32.6 µM in assay [7]. The GI50 in assay [8] was > 100 µM; in assay [9], 1.57 µM; in assay [10] it was > 100 µM. Besides, the TGI in [1], in assay [2], in assay [4], in assay [5], in assay [6] and in assay [7] was > 100 µM each time. Further, the TGI is > 100 µM in [8], 48 µM in assay [9] and > 100 µM in assay [10].
As for `Clc1ccc(CN2CCCN(Cc3ccc(Cl)cc3)C2c2cc3ccccc3c3ccccc23)cc1`, the TGI in assay [1] is > 100 µM; in [2], > 100 µM; in [3], > 100 µM; in [5], 37.6 µM; in assay [6], > 100 µM; in assay [7], > 100 µM. Further, the TGI in assay [8], in assay [9] and in assay [10] was > 100 µM in each case.
For `OCCN(CO)CO`, the TGI in assay [1], in [2], in assay [3], in assay [5], in assay [6] and in [7] was > 100 µM each time. Also, the TGI in assay [8], in assay [9] and in assay [10] was > 100 µM each time.
Turning to `O=c1cccc(Cl)[nH]1`, the TGI in assay [1], in assay [2], in [3], in assay [5], in [6] and in [7] was > 100 µM in each case. In addition, the TGI in assay [8], in assay [9] and in assay [10] was > 100 µM in each case.
On to `COc1cc(N(C)C)c(OC)cc1C=C1C=CC=C1`, for which the TGI in assay [1], in assay [3], in assay [4], in assay [5], in assay [6] and in [7] was > 100 µM in each case. Further, the TGI in assay [9] and in assay [10] was > 100 µM in each case.
`CCOC1Oc2ccc(C)cc2C(=O)/C1=C\Nc1ccc(S(N)(=O)=O)cc1` (stereo not given): the GI50 was 6.88 µM in assay [1]; 10.6 µM in [2]; 6.62 µM in assay [3]; 9.48 µM in assay [4]; 15.9 µM in assay [6]; 6.14 µM in [7]. The GI50 is 15.2 µM in assay [8], 8.92 µM in [9] and 11.6 µM in [10]. For the same compound, the TGI in assay [1] was 13.6 µM; in assay [2] it was 23.3 µM; in assay [3], 14.9 µM; in [4], 27.4 µM; in assay [6], > 50 µM; in [7], 18.5 µM. Besides, the TGI in assay [8] was > 50 µM; in assay [9], 21.3 µM; in assay [10], 31.9 µM.
Consider `CN(C)c1ccc(C(O)C2=CC(=O)c3ccccc3C2=O)cc1` (stereo not given), for which the GI50 was 14.4 µM in [1]; 7.87 µM in assay [2]; 17.8 µM in [3]; 24.2 µM in [5]; 4.7 µM in [6]; > 100 µM in assay [7]. For the same compound, the GI50 is 4.51 µM in assay [8], 4.29 µM in assay [9] and 1.56 µM in assay [10]. Moreover, the TGI was 34.6 µM in assay [1]; 32.1 µM in assay [2]; 37 µM in assay [3]; 56.7 µM in assay [5]; > 100 µM in [6]; > 100 µM in assay [7]. The TGI was > 100 µM in assay [8], 56.6 µM in assay [9] and 4.54 µM in [10].
